Test results reported in PubChem BioAssay AID1963972 (Molecular Pharmacology Branch, DTP, NCI, 2024).

Test system: 945468-187-T-J2-PDC spheroids viability
Test: Anticancer human tumor 945468-187-T-J2-PDC patient-derived rectal carcinoma cell line growth inhibition [PI3K]
Details: spheroids with HUVEC and MSC; for IC50: curve of first compound; for viability, T/C: stronger effect = lower value; active = viability on the fitted dose curve at most 10% of control; inactive = the rest
In short: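 Agents were dosed from a top concentration near clinical Cmax (otherwise 10 microM) in half-log decrements, alone or combined with PI3K inhibitors. The spheroids contain tumor cells plus endothelial (HUVEC) and MSC stroma; viability is measured.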

[1] = second compound 0.0316 µM, first compound 0.0316 µM
[2] = second compound 0.0316 µM, first compound 0.1 µM
[3] = second compound 0.1 µM, first compound 0.0316 µM
[4] = second compound 0.1 µM, first compound 0.1 µM
[5] = second compound 0.316 µM, first compound 0.0316 µM
[6] = second compound 0.316 µM, first compound 0.1 µM
[7] = second compound 1 µM, first compound 0.0316 µM
[8] = second compound 1 µM, first compound 0.1 µM
[9] = second compound 3.16 µM, first compound 0.0316 µM
[10] = second compound 3.16 µM, first compound 0.1 µM
[11] = second compound 10 µM, first compound 0.0316 µM
[12] = second compound 10 µM, first compound 0.1 µM
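Note: spheroids exposed to compounds for seven days before reading.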

CC(=O)c1c(C)c2cnc(Nc3ccc(N4CCNCC4)cn3)nc2n(C2CCCC2)c1=O + Cc1nc(NC(=O)N2CCCC2C(N)=O)sc1-c1ccnc(C(C)(C)C(F)(F)F)c1
> 0.1 µM: IC50 (second compound 0.0316 µM) | IC50 (second compound 0.1 µM) | IC50 (second compound 0.316 µM) | IC50 (second compound 1 µM) | IC50 (second compound 3.16 µM) | IC50 (second compound 10 µM)
inactive: viability, T/C (second compound 0.0316 µM, first compound 0.000316 µM) 79.2% | viability, T/C (second compound 0.0316 µM, first compound 0.001 µM) 88.4% | viability, T/C (second compound 0.0316 µM, first compound 0.00316 µM) 89.4% | viability, T/C (second compound 0.0316 µM, first compound 0.01 µM) 121% | viability, T/C [1] 79.5% | viability, T/C [2] 98.2% | viability, T/C (second compound 0.1 µM, first compound 0.000316 µM) 86.1% | viability, T/C (second compound 0.1 µM, first compound 0.001 µM) 84.2% | viability, T/C (second compound 0.1 µM, first compound 0.00316 µM) 89.6% | viability, T/C (second compound 0.1 µM, first compound 0.01 µM) 84.1% | viability, T/C [3] 110% | viability, T/C [4] 103% | viability, T/C (second compound 0.316 µM, first compound 0.000316 µM) 93.7% | viability, T/C (second compound 0.316 µM, first compound 0.001 µM) 107% | viability, T/C (second compound 0.316 µM, first compound 0.00316 µM) 95.5% | viability, T/C (second compound 0.316 µM, first compound 0.01 µM) 88.6% | viability, T/C [5] 118% | viability, T/C [6] 136% | viability, T/C (second compound 1 µM, first compound 0.000316 µM) 118% | viability, T/C (second compound 1 µM, first compound 0.001 µM) 110% | viability, T/C (second compound 1 µM, first compound 0.00316 µM) 75.7% | viability, T/C (second compound 1 µM, first compound 0.01 µM) 78% | viability, T/C [7] 94.9% | viability, T/C [8] 90.3% | viability, T/C (second compound 3.16 µM, first compound 0.000316 µM) 79.2% | viability, T/C (second compound 3.16 µM, first compound 0.001 µM) 71.7% | viability, T/C (second compound 3.16 µM, first compound 0.00316 µM) 82.8% | viability, T/C (second compound 3.16 µM, first compound 0.01 µM) 75.3% | viability, T/C [9] 83% | viability, T/C [10] 78.2% | viability, T/C (second compound 10 µM, first compound 0.000316 µM) 83% | viability, T/C (second compound 10 µM, first compound 0.001 µM) 66.7% | viability, T/C (second compound 10 µM, first compound 0.00316 µM) 78% | viability, T/C (second compound 10 µM, first compound 0.01 µM) 64.5% | viability, T/C [11] 92.7% | viability, T/C [12] 76.3%

CNC(=O)c1ccc(N2C(=S)N(c3ccc(C#N)c(C(F)(F)F)c3)C(=O)C2(C)C)cc1F + Cc1nc(NC(=O)N2CCCC2C(N)=O)sc1-c1ccnc(C(C)(C)C(F)(F)F)c1
inactive: viability, T/C [1] 116% | viability, T/C [2] 103% | viability, T/C (second compound 0.0316 µM, first compound 0.316 µM) 88.8% | viability, T/C (second compound 0.0316 µM, first compound 1 µM) 106% | viability, T/C (second compound 0.0316 µM, first compound 3.16 µM) 108% | viability, T/C (second compound 0.0316 µM, first compound 10 µM) 102% | viability, T/C [3] 95.4% | viability, T/C [4] 82% | viability, T/C (second compound 0.1 µM, first compound 0.316 µM) 91.3% | viability, T/C (second compound 0.1 µM, first compound 1 µM) 95.5% | viability, T/C (second compound 0.1 µM, first compound 3.16 µM) 102% | viability, T/C (second compound 0.1 µM, first compound 10 µM) 85.7% | viability, T/C [5] 108% | viability, T/C [6] 105% | viability, T/C (second compound 0.316 µM, first compound 0.316 µM) 91.5% | viability, T/C (second compound 0.316 µM, first compound 1 µM) 118% | viability, T/C (second compound 0.316 µM, first compound 3.16 µM) 85.5% | viability, T/C (second compound 0.316 µM, first compound 10 µM) 92.6% | viability, T/C [7] 93.3% | viability, T/C [8] 86.2% | viability, T/C (second compound 1 µM, first compound 0.316 µM) 110% | viability, T/C (second compound 1 µM, first compound 1 µM) 79.8% | viability, T/C (second compound 1 µM, first compound 3.16 µM) 78.4% | viability, T/C (second compound 1 µM, first compound 10 µM) 92.9% | viability, T/C [9] 81.1% | viability, T/C [10] 85.8% | viability, T/C (second compound 3.16 µM, first compound 0.316 µM) 84.7% | viability, T/C (second compound 3.16 µM, first compound 1 µM) 83% | viability, T/C (second compound 3.16 µM, first compound 3.16 µM) 89% | viability, T/C (second compound 3.16 µM, first compound 10 µM) 83.6% | viability, T/C [11] 83.1% | viability, T/C [12] 68.5% | viability, T/C (second compound 10 µM, first compound 0.316 µM) 74.1% | viability, T/C (second compound 10 µM, first compound 1 µM) 73.5% | viability, T/C (second compound 10 µM, first compound 3.16 µM) 72.6% | viability, T/C (second compound 10 µM, first compound 10 µM) 63.5%
> 10 µM: IC50 (second compound 0.0316 µM) | IC50 (second compound 0.1 µM) | IC50 (second compound 0.316 µM) | IC50 (second compound 1 µM) | IC50 (second compound 3.16 µM) | IC50 (second compound 10 µM)
